The text below walks through data of PMC9586938, “Picomolar fluorescent probes for compound affinity determination to carbonic anhydrase IX expressed in live cancer cells” (Scientific Reports, 2022).

pKd, pKi: −log10 of the molar value.

The target of series [1] is T1, catalytic domain of recombinant human CAIX (Homo sapiens, UniProt Q16790).
T1 construct: Isozymes CAIX, CAXII, and CAXIV were the catalytic domains of the proteins; made in house; host or cells: mammalian cells
The experiment in a line: Stopped-flow assay (SFA) of inhibition of CAIX catalytic activity. The series is classed as biochemical. The method, then:
(§1) The binding affinities of all fluorescein-containing compounds were determined for all 12 catalytically active CA isozymes by the thermal shift assay (TSA). […] However, the SFA technique cannot determine the affinities lower than the enzyme concentration used in the assay. […] In addition, we used isothermal titration calorimetry (ITC), the standard assay to determine affinity and enthalpy of protein–ligand binding. […] Therefore, ITC was used only to determine the enthalpy of interaction and confirm the ordering of compound affinities.
Inhibition of the CAIX catalytic activity (hydration reaction of CO2 to acid protons and bicarbonate) by selected compounds has been determined as previously described[41],[42]. The CA enzymatic activity and its inhibition were followed by the rate of change in pH spectrophotometrically followed by the change in color of indicator phenol red. Addition of increased concentrations of an inhibitor slowed the rate of the change in pH. The assay was performed using the stopped-flow equipment. The rate of spontaneous acidification due to CO2 hydration in water was subtracted from the enzymatically catalyzed rate.

Another series addresses T2, CAVA (Homo sapiens, UniProt P35218).
T2 construct: made in house; host or cells: E. coli
The experiment in a line: Thermal shift assay (TSA), recombinant CAVA. It counts as binding. Particulars: 37 °C, pH 7.0, observed (not intrinsic). The method, then: as §1
All twelve catalytically active human CA isozymes were prepared recombinantly as previously described. Isozymes CAIX, CAXII, and CAXIV were the catalytic domains of the proteins[14],[38]. All isozymes were expressed in E. coli except CAIX that has been prepared in mammalian cells. The proteins were chromatographically purified on ion-exchange or benzene sulfonamide containing affinity columns. Protein MW was confirmed by mass spectrometry with 1 Da precision as predicted from gene sequence.
Compound affinities for the twelve catalytically active CA isozymes were determined by the thermal shift assay as previously described[30],[39]. Protein solutions containing 1,8-anilinonaphthalenesulfonate fluorescent probe were heated from 25 to 100 °C at a rate of one degree per minute while following the fluorescence of the probe. The temperature scanning curves provided the melting temperature Tm of the protein. The Tm has a distinct dependence on the concentration of a compound. Stronger binders shift the Tm to a greater extent than the weak binders. The Tm dependencies on compound concentration were fit to obtain the affinity Kd[40].

The target in series [2] is T1, catalytic domain of recombinant human CAIX. The series can be described thus: Thermal shift assay (TSA), recombinant CAIX catalytic domain. It counts as binding. The settings on record: for pKd: TSA, 37 °C, pH 7.0, observed (not intrinsic), read-out: Kd CAIX; for binding to CAIX by TSA (in words): recombinant CAIX.
For the next series, the target named is T3, CAXIII (Homo sapiens, UniProt Q8N1Q1).
T3 construct: made in house; host or cells: E. coli
The series can be described thus: Thermal shift assay (TSA), recombinant CAXIII. The settings on record: 37 °C, pH 7.0, observed (not intrinsic). The series is classed as binding.

Another series deals with T4, recombinant human CAIX (Homo sapiens, UniProt Q16790).
T4 construct: Isozymes CAIX, CAXII, and CAXIV were the catalytic domains of the proteins; made in house; host or cells: mammalian cells
The series can be described thus: Isothermal titration calorimetry (ITC) with recombinant CAIX. It counts as binding. The protocol: as §1
Affinities of several selected compounds to several human CA isozymes have been determined by ITC as described previously[43],[44]. The protein solution was placed in the cell of iTC200 titration calorimeter while the compound solution in identical buffer was placed in the syringe. After thermal equilibration, the compound solution was injected into the cell by identical injections. The heat produced during the reaction was measured by the calorimeter providing the shape of the curve that in turn yielded the enthalpy and the affinity Kd of the interaction.
Picomolar Fluorescent Probes for Compound Affinity Determination to Carbonic Anhydrase IX Expressed in Live Cancer Cells
Figure S1. […] The binding affinity of GZ19-32 was too high to be accurately measured by ITC due to the limitation related to the Wiseman parameter C. […]
In general terms: Isothermal titration calorimetry measures the heat released or taken up as one component is titrated into another.

The target of series [3] is T5, CAIX expressed on live HeLa cells (Homo sapiens, UniProt Q16790).
T5 construct: recombinant CAIX and endogenous CAIX expressed on the cell surface; endogenous in cells; host or cells: HeLa (WT), grown under hypoxia (1% O2)
The experiment in a line: Competition of unlabeled compound with 10 nM GZ19-32 on hypoxic HeLa cells (competitive binding model). The series is classed as cell-based. Particulars: fit parameter of the competitive binding model, HeLa cells; read-out: KdB (competing fluorescent compound, component B).

T3 sequence (Q8N1Q1 whole entry): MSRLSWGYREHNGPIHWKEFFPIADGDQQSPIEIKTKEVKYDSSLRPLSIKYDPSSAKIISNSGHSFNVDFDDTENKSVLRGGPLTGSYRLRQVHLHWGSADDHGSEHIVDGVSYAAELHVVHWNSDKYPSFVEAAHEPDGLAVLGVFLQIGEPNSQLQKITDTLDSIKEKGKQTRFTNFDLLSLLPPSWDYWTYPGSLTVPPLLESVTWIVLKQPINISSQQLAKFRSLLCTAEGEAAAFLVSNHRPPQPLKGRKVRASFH
T2 sequence (P35218 39-305): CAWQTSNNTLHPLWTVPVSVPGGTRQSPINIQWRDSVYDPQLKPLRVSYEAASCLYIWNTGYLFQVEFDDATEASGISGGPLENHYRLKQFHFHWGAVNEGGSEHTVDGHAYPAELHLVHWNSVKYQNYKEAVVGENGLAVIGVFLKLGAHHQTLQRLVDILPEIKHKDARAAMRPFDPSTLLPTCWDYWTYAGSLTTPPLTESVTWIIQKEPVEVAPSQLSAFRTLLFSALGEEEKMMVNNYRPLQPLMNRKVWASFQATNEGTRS

The term pKi denotes the negative decadic logarithm of the Ki, by convention in mol/L. On to “3-((2-(cyclooctylamino)-3,5,6-trifluoro-4-(methylsulfonyl)phenyl)sulfonyl)-N-(3',6'-dihydroxy-3-oxo-3H-spiro[isobenzofuran-1,9'-xanthen]-5-yl)propanamide and 3-((3-(cyclooctylamino)-2,5,6-trifluoro-4-(methylsulfonyl)phenyl)sulfonyl)-N-(3',6'-dihydroxy-3-oxo-3H-spiro[isobenzofuran-1,9'-xanthen]-5-yl)propanamide [GZ20-37]”, for which the negative logarithm of the Ki (pKi) in series [1] was 5.82. In addition, the pKd (on CAVA; in series [2]; on CAXIII) was less than 4.00 throughout. For the same molecule, in series [2], the “binding to CAIX by TSA (in words)” value is “did not show binding”. For the same molecule, the “binding to CAIX by ITC (in words)” value at recombinant human CAIX is reported as “did not show binding”.

For orientation: melting point means the temperature, or range, at which the solid turns liquid. The molecule `NS(=O)(=O)c1c(F)c(F)c(S(=O)(=O)CCC(=O)Nc2ccc3c(c2)C(=O)OC32c3ccc(O)cc3Oc3cc(O)ccc32)c(NC2CCCCCCC2)c1F` [GZ19-32, 3-((2-(cyclooctylamino)-3,5,6-trifluoro-4-sulfamoylphenyl)sulfonyl)-N-(3',6'-dihydroxy-3-oxo-3H-spiro[isobenzofuran-1,9'-xanthen]-5-yl)propanamide] yielded a melting point of 189 to 190 °C. Moreover, the pKd at CAVA was 6.40. Also, in series [2], the pKd is 11.30 and the “binding to CAIX by TSA (in words)” value is recorded as “high affinity for CAIX (pM range)”. In addition, the pKd on CAXIII was 9.17. Further, in series [3], the pKd was 9.70. In addition, the “binding to CAIX by ITC (in words)” value on recombinant human CAIX was “too high to be accurately measured”.
